Data as given in patent publication US20250352520A1, “USE OF DEXPRAMIPEXOLE FOR THE TREATMENT OF EOSINOPHILIC COPD” (Areteia Therapeutics, Inc., priority 2024, published 2025).

Conditions: Week 12; >=50% AEC reduction at Week 16

CCCN[C@@H]1CCc2nc(N)sc2C1 [Dexpramipexole, (6R)-2-amino-4,5,6,7-tetrahydro-6-(propylamino)benzothiazole]
Pre-BD FEF25-75 % change from baseline, Max: 14% | Pre-BD FEF25-75 % change from baseline, Mean ± SD: 6.3 ± 8.24% | Pre-BD FEF25-75 % change from baseline, Median: 6.8% | Pre-BD FEF25-75 % change from baseline, Min: −2% | Pre-BD FEF25-75 % change from baseline, Q1: −2% | Pre-BD FEF25-75 % change from baseline, Q3: 14% | Pre-BD FEF25-75 Observed, Max: 900 mL/s | Pre-BD FEF25-75 Observed, Mean ± SD: 640.0 ± 351.57 mL/s | Pre-BD FEF25-75 Observed, Median: 780.0 mL/s | Pre-BD FEF25-75 Observed, Min: 240 mL/s | Pre-BD FEF25-75 Observed, Q1: 240 mL/s | Pre-BD FEF25-75 Observed, Q3: 900 mL/s | Pre-BD FEF25-75 change from baseline, Max: 50 mL/s | Pre-BD FEF25-75 change from baseline, Mean ± SD: 20.0 ± 36.06 mL/s | Pre-BD FEF25-75 change from baseline, Median: 30.0 mL/s | Pre-BD FEF25-75 change from baseline, Min: -20 mL/s | Pre-BD FEF25-75 change from baseline, Q1: -20 mL/s | Pre-BD FEF25-75 change from baseline, Q3: 50 mL/s | Pre-BD FEV1 % change from baseline, Max: 37% | Pre-BD FEV1 % change from baseline, Mean ± SD: 25.3 ± 19.37% | Pre-BD FEV1 % change from baseline, Median: 36. % | Pre-BD FEV1 % change from baseline, Min: 3% | Pre-BD FEV1 % change from baseline, Q1: 3% | Pre-BD FEV1 % change from baseline, Q3: 37% | Pre-BD FEV1 Observed, Max: 1780 mL | Pre-BD FEV1 Observed, Mean ± SD: 1496.7 ± 448.14 mL | Pre-BD FEV1 Observed, Median: 1730.0 mL | Pre-BD FEV1 Observed, Min: 980 mL | Pre-BD FEV1 Observed, Q1: 980 mL | Pre-BD FEV1 Observed, Q3: 1780 mL | Pre-BD FEV1 change from baseline, Max: 480 mL | Pre-BD FEV1 change from baseline, Mean ± SD: 263.3 ± 215.02 mL | Pre-BD FEV1 change from baseline, Median: 260.0 mL | Pre-BD FEV1 change from baseline, Min: 50 mL | Pre-BD FEV1 change from baseline, Q1: 50 mL | Pre-BD FEV1 change from baseline, Q3: 480 mL | Pre-BD FVC % change from baseline, Max: 18% | Pre-BD FVC % change from baseline, Mean ± SD: 12.0 ± 5.17% | Pre-BD FVC % change from baseline, Median: 11.1% | Pre-BD FVC % change from baseline, Min: 7% | Pre-BD FVC % change from baseline, Q1: 7% | Pre-BD FVC % change from baseline, Q3: 18% | Pre-BD FVC Observed, Max: 2800 mL | Pre-BD FVC Observed, Mean ± SD: 2690.0 ± 181.93 mL | Pre-BD FVC Observed, Median: 2790.0 mL | Pre-BD FVC Observed, Min: 2480 mL | Pre-BD FVC Observed, Q1: 2480 mL | Pre-BD FVC Observed, Q3: 2800 mL | Pre-BD FVC change from baseline, Max: 370 mL | Pre-BD FVC change from baseline, Mean ± SD: 280.0 ± 90.00 mL | Pre-BD FVC change from baseline, Median: 280.0 mL | Pre-BD FVC change from baseline, Min: 190 mL | Pre-BD FVC change from baseline, Q1: 190 mL | Pre-BD FVC change from baseline, Q3: 370 mL | Pre-BD Peak Flow % change from baseline, Max: 82% | Pre-BD Peak Flow % change from baseline, Mean ± SD: 31.8 ± 45.54% | Pre-BD Peak Flow % change from baseline, Median: 21.9% | Pre-BD Peak Flow % change from baseline, Min: −8% | Pre-BD Peak Flow % change from baseline, Q1: −8% | Pre-BD Peak Flow % change from baseline, Q3: 82% | Pre-BD Peak Flow Observed, Max: 285 L/min | Pre-BD Peak Flow Observed, Mean ± SD: 208.7 ± 66.53 L/min | Pre-BD Peak Flow Observed, Median: 178.0 L/min | Pre-BD Peak Flow Observed, Min: 163 L/min | Pre-BD Peak Flow Observed, Q1: 163 L/min | Pre-BD Peak Flow Observed, Q3: 285 L/min | Pre-BD Peak Flow change from baseline, Max: 128 L/min | Pre-BD Peak Flow change from baseline, Mean ± SD: 48.7 ± 72.45 L/min | Pre-BD Peak Flow change from baseline, Median: 32.0 L/min | Pre-BD Peak Flow change from baseline, Min: -14 L/min | Pre-BD Peak Flow change from baseline, Q1: -14 L/min | Pre-BD Peak Flow change from baseline, Q3: 128 L/min
